Measured values taken from the NIST ThermoML archive (doi:10.1016/j.jct.2015.07.048).

Assay: xn = mol fraction of the nth substance listed
Details: 100 kPa, Liquid; for viscosity: Cone and plate viscometry; for electrical conductivity: Direct current cell with electrodes; for mass density: Vibrating tube method

CCCn1cc[n+](C)c1.O=S(=O)([N-]S(=O)(=O)C(F)(F)F)C(F)(F)F + O=C1CCCO1
Details | electrical conductivity [S/m] | mass density [kg/m3] | viscosity [mPa·s]
293.15 K, x1 = 0.05 | 1.04 | 1185.12 | –
293.15 K, x1 = 0.0999 | – | 1229.6 | –
293.15 K, x1 = 0.1 | 1.37 | – | 3.42
293.15 K, x1 = 0.15 | 1.45 | – | 4.3
293.15 K, x1 = 0.1999 | 1.37 | 1295.75 | 5.28
293.15 K, x1 = 0.2912 | 1.2 | 1338.94 | –
293.15 K, x1 = 0.2996 | – | – | 8.1
293.15 K, x1 = 0.4005 | 0.89 | 1377.51 | 11.48
293.15 K, x1 = 0.4986 | 0.707 | 1403.93 | 15.9
293.15 K, x1 = 0.6 | 0.595 | 1425.6 | 21.71
293.15 K, x1 = 0.6997 | 0.498 | 1442.85 | 28.23
293.15 K, x1 = 0.7998 | 0.428 | 1457.11 | 35.85
293.15 K, x1 = 0.8818 | 0.387 | 1467.07 | 43.07
293.15 K, x1 = 1 | 0.355 | 1479.32 | 54.19
298.15 K, x1 = 0.05 | 1.13 | 1180.18 | –
298.15 K, x1 = 0.0999 | – | 1224.68 | –
298.15 K, x1 = 0.1 | 1.5 | – | 3.16
298.15 K, x1 = 0.15 | 1.6 | – | 3.94
298.15 K, x1 = 0.1999 | 1.52 | 1290.81 | 4.75
298.15 K, x1 = 0.2912 | 1.38 | 1333.98 | –
298.15 K, x1 = 0.2996 | – | – | 7.17
298.15 K, x1 = 0.4005 | 1.1 | 1372.56 | 9.96
298.15 K, x1 = 0.4986 | 0.87 | 1398.93 | 13.62
298.15 K, x1 = 0.6 | 0.692 | 1420.58 | 18.38
298.15 K, x1 = 0.6997 | 0.604 | 1437.83 | 23.68
298.15 K, x1 = 0.7998 | 0.526 | 1452.07 | 29.72
298.15 K, x1 = 0.8818 | 0.472 | 1462.02 | 35.46
298.15 K, x1 = 1 | 0.435 | 1474.24 | 43.94
303.15 K, x1 = 0.05 | 1.22 | 1175.2 | –
303.15 K, x1 = 0.0999 | – | 1219.69 | –
303.15 K, x1 = 0.1 | 1.63 | – | 2.92
303.15 K, x1 = 0.15 | 1.75 | – | 3.6
303.15 K, x1 = 0.1999 | 1.67 | 1285.84 | 4.3
303.15 K, x1 = 0.2912 | 1.56 | 1329.01 | –
303.15 K, x1 = 0.2996 | – | – | 6.31
303.15 K, x1 = 0.4005 | 1.22 | 1367.63 | 8.69
303.15 K, x1 = 0.4986 | 1.02 | 1394.03 | 11.81
303.15 K, x1 = 0.6 | 0.796 | 1415.71 | 15.67
303.15 K, x1 = 0.6997 | 0.714 | 1432.97 | 19.81
303.15 K, x1 = 0.7998 | 0.629 | 1447.22 | 24.68
303.15 K, x1 = 0.8818 | 0.564 | 1457.17 | 28.84
303.15 K, x1 = 1 | 0.521 | 1469.4 | 35.92
308.15 K, x1 = 0.05 | 1.31 | 1170.18 | –
308.15 K, x1 = 0.0999 | – | 1214.67 | –
308.15 K, x1 = 0.1 | 1.76 | – | 2.68
308.15 K, x1 = 0.15 | 1.9 | – | 3.3
308.15 K, x1 = 0.1999 | 1.85 | 1280.78 | 3.91
308.15 K, x1 = 0.2912 | 1.75 | 1323.97 | –
308.15 K, x1 = 0.2996 | – | – | 5.67
308.15 K, x1 = 0.4005 | 1.44 | 1362.59 | 7.71
308.15 K, x1 = 0.4986 | 1.27 | 1389.01 | 10.31
308.15 K, x1 = 0.6 | 0.992 | 1410.7 | 13.51
308.15 K, x1 = 0.6997 | 0.827 | 1427.98 | 17.13
308.15 K, x1 = 0.7998 | 0.737 | 1442.24 | 21
308.15 K, x1 = 0.8818 | 0.667 | 1452.2 | 24.51
308.15 K, x1 = 1 | 0.611 | 1464.43 | 30
313.15 K, x1 = 0.05 | 1.42 | 1165.15 | –
313.15 K, x1 = 0.0999 | – | 1209.63 | –
313.15 K, x1 = 0.1 | 1.9 | – | 2.49
313.15 K, x1 = 0.15 | 2.06 | – | 3.06
313.15 K, x1 = 0.1999 | 2.02 | 1275.71 | 3.57
313.15 K, x1 = 0.2912 | 1.94 | 1318.9 | –
313.15 K, x1 = 0.2996 | – | – | 5.1
313.15 K, x1 = 0.4005 | 1.64 | 1357.55 | 6.92
313.15 K, x1 = 0.4986 | 1.44 | 1383.98 | 9.13
313.15 K, x1 = 0.6 | 1.15 | 1405.67 | 11.92
313.15 K, x1 = 0.6997 | 1.03 | 1422.96 | 14.78
313.15 K, x1 = 0.7998 | 0.849 | 1437.25 | 17.93
313.15 K, x1 = 0.8818 | 0.789 | 1447.22 | 20.73
313.15 K, x1 = 1 | 0.71 | 1459.44 | 25.32
318.15 K, x1 = 0.05 | 1.52 | 1159.99 | –
318.15 K, x1 = 0.0999 | – | 1204.53 | –
318.15 K, x1 = 0.1 | 2.03 | – | 2.3
318.15 K, x1 = 0.15 | 2.22 | – | 2.8
318.15 K, x1 = 0.1999 | 2.24 | 1270.69 | 3.25
318.15 K, x1 = 0.2912 | 2.13 | 1313.92 | –
318.15 K, x1 = 0.2996 | – | – | 4.6
318.15 K, x1 = 0.4005 | 1.92 | 1352.58 | 6.2
318.15 K, x1 = 0.4986 | 1.68 | 1379.05 | 8.06
318.15 K, x1 = 0.6 | 1.41 | 1400.79 | 10.43
318.15 K, x1 = 0.6997 | 1.21 | 1418.09 | 12.8
318.15 K, x1 = 0.7998 | 0.997 | 1432.4 | 15.49
318.15 K, x1 = 0.8818 | 0.883 | 1442.41 | 17.84
318.15 K, x1 = 1 | 0.813 | 1454.63 | 21.58
323.15 K, x1 = 0.05 | 1.64 | 1154.83 | –
323.15 K, x1 = 0.0999 | – | 1199.33 | –
323.15 K, x1 = 0.1 | 2.17 | – | 2.13
323.15 K, x1 = 0.15 | 2.38 | – | 2.59
323.15 K, x1 = 0.1999 | 2.41 | 1265.59 | 3.01
323.15 K, x1 = 0.2912 | 2.33 | 1308.85 | –
323.15 K, x1 = 0.2996 | – | – | 4.21
323.15 K, x1 = 0.4005 | 2.1 | 1347.55 | 5.59
323.15 K, x1 = 0.4986 | 1.9 | 1374.04 | 7.24
323.15 K, x1 = 0.6 | 1.64 | 1395.82 | 9.27
323.15 K, x1 = 0.6997 | 1.39 | 1413.16 | 11.31
323.15 K, x1 = 0.7998 | 1.15 | 1427.49 | 13.71
323.15 K, x1 = 0.8818 | 1.03 | 1437.5 | 15.72
323.15 K, x1 = 1 | 0.923 | 1449.73 | 18.82
